“Also recorded” adds a separate entry of the source.
Columns and labels:
Assay type in all cases: in vivo, human
[1] = tested on: patients on chronic methadone therapy for pain; assay: Piper survey for fatigue in chronic pain patients on methadone, with and without NAC
Method: (§1) 6 patients who have been on chronic methadone therapy for pain treatment and who are also taking NAC (600 mg/day) were studied. Patients were taking a range of methadone doses (30-160 mg/day).
(§2) This is a descriptive case study of 6 patients. A blood sample was obtained and used to measure serum methadone levels was obtained on methadone/NAC therapy. NAC was supplied by the investigator from assayed commercially available supply and pill counts were done to assure patient compliance. The patients were on the same methadone dose for over seven days; this ensures steady state levels of methadone had been achieved. The patients were then be asked to stop taking NAC for 7 days and were asked to return to the clinic for a second blood draw that measured serum methadone levels. Blood was collected in the offices of BAA. Three additional patients were studied, after the results from sera of the initial patients were assayed; these patients had baseline pain and fatigue assessments with the Piper Survey and were subsequently treated with NAC, serum determinations were sent, but have not as yet been completed. Thus patients on methadone were studied with NAC withdrawal (First Group) and NAC added to treatment (second group). The medical chart was reviewed for current medications, including over the counter medications, supplements, and herbal preparations; health conditions and available laboratory evaluations of electrolytes. The patient's age and gender was recorded.
(§3) BAA offices: A 5 ml blood sample will be obtained on methadone/NAC. Blood was drawn prior to a normally timed dose of methadone. The patient was instructed to discontinue taking NAC and returned in 7 days, at the same time, for a blood draw. This was also drawn prior to a normally timed dose of methadone. Patients completed a Piper survey for fatigue and distress on each occasion prior to the blood draw. The Piper score reflects a valid measure of fatigue. Higher numbers for the score are indicative of greater fatigue. Within the Piper survey a pain measure is also recorded. Both pain and fatigue scores were measured at each of the clinical visits one week apart. Trained study personnel completed chart review. Analysis of serum concentrations of methadone was completed at the Bioanalytical Core Lab at the Arizona Health Science Center (Sarver Heart Center, University of Arizona, Tucson).

[2] = tested on: patients on chronic methadone therapy for pain; assay: VAS pain and clinical comments in pain patients in clinical trial, with and without NAC
Method: as §1, §2, §3

[3] = tested on: Restless Legs Syndrome (RLS) subjects; assay: Clinical use: relief of Restless Legs Syndrome symptoms; details: clinical observation
Method: The blood levels of these patients measured below detection thresholds (20 ng/ml) and well below the blood levels recorded for pain relief (300 ng/ml). The NAC dose used in the present invention was far less than the 500 mg TID dose used as a supplement in treatment of diseases of inflammation.

[4] = tested on: patients with pain / restless legs syndrome; assay: Case histories: NAC added to oral ketamine (pain diary, patient reports); details: single patients; Case 1: NAC 25 mg, within 24 hours; Case 2: ketamine 150 mg/day
Method: The patient maintained a diary noting their level of pain with 1 being the lowest and 10 the highest. […] The patient was then administered 25 mg of NAC to be taken in combination with oral ketamine.

[5] = on methadone without NAC (M001-M003 NAC stopped 7 days; M004-M006 baseline before NAC)
[6] = cases summarized and a few additional cases

## CCC(=O)C(CC(C)N(C)C)(c1ccccc1)c1ccccc1 (stereo not shown) [Mtd, methadone]
[1]; [5]
  Fatigue (yes/no): Yes

## CC(=O)N[C@@H](CS)C(=O)O [NAC, N-acetyl-cysteine]
[1]; [6]
  fatigue when NAC is added to methadone: Improvement in fatigue
[1]; on methadone with NAC, patients M001-M006
  Fatigue (yes/no): No
[1]; [5]
  Fatigue (yes/no): Yes and No
[2]; [6]
  medication for pain when NAC is added to methadone: reduction in medication for pain
[2]; patient M004, after NAC added to methadone
  opioid reduction: subsequently; 30% opiod
[2]; patients M001-M003 on methadone, NAC stopped 7 days
  Comments: change on stopping NAC: Inc. irritabil; also recorded: Inc.pain/w
[2]; patients M004-M006 on methadone, NAC added
  Comments: patient report / clinical course after NAC added: Stopped all oxycondone; also recorded: “much less fatigue since starting; also recorded: “I do feel better taking NAC”

## COc1ccc2c(c1)[C@]13CCCC[C@@H]1[C@H](C2)N(C)CC3 [dextromethorphan]
[3]
  symptoms of Restless Legs Syndrome (RLS): treats restless legs syndrome

## CNC1(c2ccccc2Cl)CCCCC1=O (stereo not shown) [ketamine]
[4]
  pain relief (patient report): noted pain relief

— US20080096872A1, “Composition for Treatment of Pain Specification” (priority 2004, published 2008)
